In publication PMC12587390, “Metabolite Identification Data in Drug Discovery, Part 1: Data Generation and Trend Analysis” (Molecular Pharmaceutics, 2025):
Converted amounts (≈) assume the structure as drawn.

Key:
[1] = MetID on in vivo dog samples (plasma, urine); set-up: species or system dog (beagles); conditions: for % of the total MS area, Dog Plasma (Female): after Cmpd 28, sampled at 3 h and 30 min
Method: (§1) The workup procedure could vary somewhat depending on the compound and dose, but the general procedure was as follows: Two volumes of ACN/methanol (1:1, v:v) were added to the plasma samples and vortex-mixed to precipitate the proteins. Thereafter, the samples were centrifuged for 10 min (at 10,000 g and 4 °C), and the supernatants were diluted with one volume of water. The urine samples were diluted with one volume of ACN/methanol (1:1, v:v) and centrifuged for 10 min (at 10,000 g and 4 °C), followed by a 1:1 dilution with water.
(§2) Structural characterization of metabolites and metabolite profiling were performed using the Waters Acquity ultraperformance liquid chromatography (UPLC) system fitted to a Waters High-Resolution Mass Spectrometer (MS) (Xevo G2-S, Synapt G2-Si, or a Synapt XS MS). The Waters MS systems, equipped with an electrospray ionization (ESI) source, were operated in positive-ion sensitivity mode over a mass range m/z 50–1200 and in negative-ion sensitivity mode over a mass range m/z of 50–1200.
(§3) The reversed-phase gradient elution was performed on an Acquity U(H)-PLC BEH C18 column (2.1 × 100 mm, 1.7 μm, Waters) set at 45 °C. The mobile phases consisted of 0.1% FA in water (A) and ACN (B). […] The injection volume was 2 μL. The MS settings were optimized for the respective MS instrument. […] A scan time of 0.1 s was used, and data were acquired in centroid mode. Collision energy was set to “off” for the low-energy function, whereas in the high-energy MSe functions, the collision energies were typically ramped from 15 to 35 V in the trap cell, with constant collision energies of 20 V in their transfer cells. Cone voltage was set to 25 V for both low- and high-energy functions. For dedicated MS/MS, the m/z of the molecular ion was selected in the quadrupole, and the mass range for fragmentation analysis was typically set between 50 and 1200. The collision energies were either the same as those stated above for MSe data generation or optimized for a specific metabolite. Tune parameters for all MS analyses consisted of a capillary energy of 0.5 kV, sampling cone energy of 40 V, source temperature of 150 °C, desolvation temperature of 550 °C, cone gas flow of 0 L/h, desolvation gas flow of 1200 L/h, and nebulizer pressure of 6.5 bar.
(§4) Metabolite identification was conducted by processing the generated data using the MetaboLynx XS browser (Waters), MassMetaSite and the web interface ONIRO (Mass Analytica). […] Accurate masses of metabolites were determined from the protonated molecules in the positive ESI time-of-flight MS (ESI–TOF–MS) mode and from the deprotonated molecules in the negative ESI–TOF–MS mode. […] For those metabolites where no MS/MS data could be acquired, identification was based on the accurate mass of the molecular ion and the fragmentation seen in the MSe spectrum. Relative amounts of detected metabolites were calculated as % of the total MS area by dividing the MS peak area for the metabolite (or parent compound) by the combined MS peak area for the parent compound and all identified metabolites.

[2] = MetID on in vivo rat plasma samples; set-up: species or system rat (Han Wistar); conditions: after Cmpd 28; sampled at 4 h
Method: as §1, §2, §3, §4

dog hepatocytes = test: Metabolite identification in dog hepatocyte incubations; format: in vitro ADME; conditions: dog hepatocytes, incubated for 120 min
Method: (§5) Cryopreserved, pooled primary human, dog, and rat hepatocytes were obtained from BioIVT (previously Celsis IVT). L-15 Leibovitz buffer was placed in a water bath to reach 37 °C. Cryopreserved hepatocytes were transferred from a −150 °C freezer on dry ice and immediately immersed in a preheated water bath kept at 37 °C for thawing. When only a small ice crystal could be seen, the content was emptied into a 50 mL falcon tube filled with warm buffer (maximum four vials/falcon tube). The suspension was centrifuged at room temperature for 3 min at 50 g. The supernatant was removed, the pellet was resuspended in a small volume of buffer, and the falcon tube was refilled with buffer, followed by another centrifugation to wash away any remaining storage buffer. Thereafter, the supernatant was removed, and the pellet was dissolved in a small volume of buffer and diluted to a concentration of about 3–5 million cells/mL. After counting the cells using a Casy cell counter, the suspension was diluted to 1 million viable cells/mL and kept at room temperature until use. The viability cutoff was 80%.
(§6) An aliquot of 245 μL of hepatocyte suspension was added to a round-bottomed 96-deep-well plate using a manual multipipette. The deep-well plate was preincubated for 15 min at 37 °C and 13 Hz. Substrate solutions of the assay compounds were prepared by the robot in a 96-well plate as follows: 4 μL of 10 mM DMSO stock solution, followed by the addition of 96 μL of ACN:water (1:1, v:v) and mixing by shaking. 50 μL from each well were transferred to and combined in a new plate, resulting in 100 μL per well and a dilution of 1:1.
(§7) The reaction was started by the addition of 5 μL of 200 μM substrate solution to the preheated hepatocyte suspension, resulting in a final substrate concentration of 4 μM (0.04% DMSO, <0.5% ACN). The incubation was continued at 37 °C and 13 Hz. At each time point (0, 40, and 120 min), a 50 μL sample was taken out and quenched in 200 μL of cold ACN:methanol (1:1, v:v), and the stopped plates were centrifuged for 20 min (set at 4 °C and 4000 g). The supernatant was diluted by taking 50 μL and mixing it with 100 μL of water. Incubations of the positive controls, albendazole and dextromethorphan, were performed in parallel as described above.
as §2
(§8) The reversed-phase gradient elution was performed on an Acquity U(H)-PLC BEH C18 column (2.1 × 100 mm, 1.7 μm, Waters) set at 45 °C. The mobile phases consisted of 0.1% FA in water (A) and ACN (B). […] The injection volume was 2 μL. The MS settings were optimized for the respective MS instrument. […] A scan time of 0.1 s was used, and data were acquired in centroid mode. Collision energy was set to “off” for the low-energy function, whereas in the high-energy MSe functions, the collision energies were typically ramped from 15 to 35 V in the trap cell, with constant collision energies of 20 V in their transfer cells. Cone voltage was set to 25 V for both low- and high-energy functions. For dedicated MS/MS, the m/z of the molecular ion was selected in the quadrupole, and the mass range for fragmentation analysis was typically set between 50 and 1200. The collision energies were either the same as those stated above for MSe data generation or optimized for a specific metabolite.

human hepatocytes [3] = test: Metabolic stability in human hepatocytes (HH CLint); format: in vitro ADME; conditions: 37 °C, 2 h
Method: Metabolic stability in human hepatocytes (HH CLint) was measured by incubating the cells with the test compound at 37 °C for 2 h. An aliquot of the mixture was taken at typically nine defined time points, and the metabolic reaction was stopped by adding ACN. The samples were centrifuged, and the supernatant was analyzed via LC-MS/MS. Intrinsic clearance (CLint) was calculated from the disappearance rate of the parent compound. ,

human hepatocytes [4] = test: Metabolite identification in human hepatocyte incubations; format: in vitro ADME; conditions: 4 μM
Method: as §5, §6, §7, §2, §8

[5] = Thermodynamic solubility, shake-flask; conditions: 10 mM sodium phosphate buffer, 25 °C, pH 7.4, aqueous buffer, thermodynamic from solid
Method: Solubility was measured as the thermodynamic solubility using a shake-flask approach. Here, DMSO was evaporated from the compound stock solution as the first step. The “dried” compounds were then placed into 10 mM sodium phosphate buffer, adjusted to pH 7.4, and equilibrated at 25 °C for 24 h. The samples were centrifuged, and the solution was analyzed by LC-MS/MS to determine the amount of compound in solution.

For `Cc1cc(-c2ccc(C(=O)[C@@H]3CCCC[C@H]3C(=O)Nc3c[nH]nc3C)cc2)n[nH]1` [Cmpd 28 M11], which “% of the total MS area, Dog Plasma (Female)” value [1] is on record?
The value was 0.5%.

What about the “% of the total MS area, Rat Plasma (Female)” value [2] of the same compound?
Its value is less than 1%.

And the “% of the total MS area, Rat Plasma (Male)” value [2]?
Its value is 1%.

With `CC(=O)Nc1cn(C)nc1C` [Cmpd 28 M12] as the compound, how does the “% of the total MS area, Rat Plasma (Female)” value [2] read?
The value was 1%.

And the “% of the total MS area, Rat Plasma (Male)” value [2]?
The value was 1%.

Which “% of the total MS area, Dog Plasma (Female)” value [1] does the source give for `Cc1cc(-c2ccc(C(=O)[C@@H]3CCCC[C@H]3C(=O)Nc3cn(C)nc3C)cc2)n[nH]1` [Cmpd 28, Cc1cc(-c2ccc(C(=O)[C@@H]3CCCC[C@H]3C(=O)Nc3cn(C)nc3C)cc2)n[nH]1] here?
Its value is 34%.

For `CN(C(=O)c1ccc(Cl)cc1)C(CN1CC(O)C1)C1CC1` (centres unmarked) [Cmpd 47, CN(C(=O)c1ccc(Cl)cc1)[C@H](CN1CC(O)C1)C1CC1], which “Parent, % of the total MS area” value (dog hepatocytes) is on record?
The value was 83%.

What about the “Parent, % of the total MS area” value ([1]; dog plasma, sampled at 30 min) of the same compound?
The value was 5%.

And the “Parent, % of the total MS area” value ([1]; dog urine, sampled at 7–24 h)?
The value was 5%.

What does the source list for `CC(C)C(CN1CC(O)C1)N(C)C(=O)c1ccc(Cl)cc1` (centres unmarked) [Cmpd 50, CC(C)[C@@H](CN1CC(C1)O)N(C)C(=O)c2ccc(cc2)Cl]?
Parent, % of the total MS area (dog hepatocytes): 73%; Metabolites detected in plasma ([1]; dog plasma): No metabolites; Parent, % of the total MS area ([1]; dog plasma, sampled at 60 min): >99%; Parent, % of the total MS area ([1]; dog urine, sampled at 7–24 h): 10%

For `CCCC(CN1CC(O)C1)N(C)C(=O)c1ccc(Cl)cc1` (centres unmarked) [Cmpd 51, CCC[C@@H](CN1CC(O)C1)N(C)C(=O)c1ccc(Cl)cc1], which “Parent, % of the total MS area” value (dog hepatocytes) is on record?
Its value is 80%.

What about the “N-oxide, % of the total MS area” value ([1]; dog plasma, sampled at 60 min) of the same compound?
Its value is “not observed”.

What about the “Parent, % of the total MS area” value ([1]; dog plasma, sampled at 60 min) of the same compound?
Its value is 20%.

And the “N-oxide, % of the total MS area” value ([1]; dog urine, sampled at 7–24 h)?
Its value is “not observed”.

And the “Parent, % of the total MS area” value ([1]; dog urine, sampled at 7–24 h)?
Its value is 22%.

What does the source list for `CN(C(=O)c1ccc(C#N)cc1)C(CN1CC(O)C1)c1ccccc1` (centres unmarked) [Cmpd 55, CN(C(=O)c1ccc(C#N)cc1)[C@H](CN1CC(O)C1)c1ccccc1]?
N-oxide, % of the total MS area (dog hepatocytes): no N-oxidation was seen; Parent, % of the total MS area (dog hepatocytes): 97%; N-oxide, % of the total MS area ([1]; dog plasma, sampled at 60 min): not observed; Parent, % of the total MS area ([1]; dog plasma, sampled at 60 min): 49%; N-oxide, % of the total MS area ([1]; dog urine, sampled at 7–24 h): not observed; Parent, % of the total MS area ([1]; dog urine, sampled at 7–24 h): 61%

Which “HH CLint” value (human hepatocytes [3]) does the source give for `COc1ccc(-c2nnc(C(=O)N3CC(Oc4ccc(CN(C)C)c(C)c4)C3)o2)cc1` [Cmpd 67, COc1ccc(-c2nnc(C(=O)N3CC(Oc4ccc(CN(C)C)c(C)c4)C3)o2)cc1] here?
The value was 16 μL/min/1E6.

What about the “Metabolites / metabolic pathways identified” value (human hepatocytes [4]) of the same compound?
Its value is “N- and O-demethylation are major metabolic pathways”.

Which “HH CLint” value (human hepatocytes [3]) does the source give for `COc1ccc(-c2nnc(C(=O)N3CC(Oc4ccc(CN5CC(C)(O)C5)c(C)c4)C3)o2)cc1` [Cmpd 81, COc1ccc(-c2nnc(C(=O)N3CC(Oc4ccc(CN5CC(C)(O)C5)c(C)c4)C3)o2)cc1] here?
The value was 17 μL/min/1E6.

And the “Metabolites / metabolic pathways identified” value (human hepatocytes [4])?
The value was “O-demethylation pathway remains the major metabolic route”.

What about the solubility at 24 h [5] of the same compound?
Its solubility at 24 h is 71 µM (≈ 33 µg/mL).
